The source of these data is patent publication US11945813B2, “5-substituted 4-amino-1H-benzo[c][1,2,6]thiadiazine 2,2-dioxides and formulations and uses thereof” (Firmenich Incorporated, priority 2018, dated 2024).

The target of assay [1] is T1, T1R2/T1R3 taste receptor (Homo sapiens, UniProt Q8TE23).
T1 sequence (Q8TE23 20-839): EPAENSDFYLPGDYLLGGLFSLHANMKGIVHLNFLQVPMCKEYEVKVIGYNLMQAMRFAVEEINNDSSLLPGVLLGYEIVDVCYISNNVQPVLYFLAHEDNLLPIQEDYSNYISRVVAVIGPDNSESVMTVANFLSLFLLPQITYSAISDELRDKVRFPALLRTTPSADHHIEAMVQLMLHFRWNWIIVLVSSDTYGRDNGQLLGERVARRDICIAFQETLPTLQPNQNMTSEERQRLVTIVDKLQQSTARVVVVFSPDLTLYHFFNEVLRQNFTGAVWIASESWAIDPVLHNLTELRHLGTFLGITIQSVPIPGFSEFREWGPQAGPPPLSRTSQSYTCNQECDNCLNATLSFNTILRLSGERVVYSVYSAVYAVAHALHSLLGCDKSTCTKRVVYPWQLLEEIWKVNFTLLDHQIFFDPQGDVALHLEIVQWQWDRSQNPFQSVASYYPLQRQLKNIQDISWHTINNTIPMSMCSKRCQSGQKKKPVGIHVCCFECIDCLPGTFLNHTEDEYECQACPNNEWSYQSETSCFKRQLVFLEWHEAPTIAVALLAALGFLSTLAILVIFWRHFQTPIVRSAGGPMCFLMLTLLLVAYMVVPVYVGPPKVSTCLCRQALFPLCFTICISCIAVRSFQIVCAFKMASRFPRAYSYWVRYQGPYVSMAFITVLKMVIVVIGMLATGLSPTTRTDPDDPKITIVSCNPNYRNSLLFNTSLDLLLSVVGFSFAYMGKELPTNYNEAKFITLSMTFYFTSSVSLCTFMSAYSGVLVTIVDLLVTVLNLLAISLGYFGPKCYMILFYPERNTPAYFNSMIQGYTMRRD
T1 sequence (Q7RTX0 21-852 partner): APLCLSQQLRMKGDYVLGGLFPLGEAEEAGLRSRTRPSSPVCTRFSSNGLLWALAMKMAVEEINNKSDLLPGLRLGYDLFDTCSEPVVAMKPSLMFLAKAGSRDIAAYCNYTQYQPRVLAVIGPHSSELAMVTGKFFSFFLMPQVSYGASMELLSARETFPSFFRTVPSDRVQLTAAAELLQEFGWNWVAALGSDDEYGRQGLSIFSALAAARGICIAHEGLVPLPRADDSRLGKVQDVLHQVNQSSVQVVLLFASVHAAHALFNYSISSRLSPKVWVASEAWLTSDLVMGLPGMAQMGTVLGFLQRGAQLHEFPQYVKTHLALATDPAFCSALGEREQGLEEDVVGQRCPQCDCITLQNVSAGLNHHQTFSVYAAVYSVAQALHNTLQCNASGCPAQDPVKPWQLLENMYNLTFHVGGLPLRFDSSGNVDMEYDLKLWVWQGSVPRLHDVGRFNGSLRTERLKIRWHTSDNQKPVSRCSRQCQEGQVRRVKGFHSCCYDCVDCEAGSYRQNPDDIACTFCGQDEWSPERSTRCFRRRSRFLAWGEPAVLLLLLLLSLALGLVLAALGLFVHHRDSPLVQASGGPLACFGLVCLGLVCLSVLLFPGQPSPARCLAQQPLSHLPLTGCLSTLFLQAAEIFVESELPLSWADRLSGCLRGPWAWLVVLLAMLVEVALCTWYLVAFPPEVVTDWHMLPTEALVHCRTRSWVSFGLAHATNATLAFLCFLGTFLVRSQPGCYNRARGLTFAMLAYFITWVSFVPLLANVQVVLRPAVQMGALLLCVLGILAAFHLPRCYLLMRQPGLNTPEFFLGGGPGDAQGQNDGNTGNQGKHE
The assay is described as follows: Receptor-based assay: sweetener EC50 alone and with test compound (enhancement ratio). The assay is classed as cell-based. Particulars: for Sucralose Enhancement EC50 Ratio: sweetener sucralose; for Sucrose Enhancement EC50 Ratio: sweetener sucrose; for Fructose Enhancement EC50 Ratio: sweetener fructose. In short, it runs like this: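 Sucrose, sucralose or fructose EC50 measured on human T1R2/T1R3, alone and with 3, 10 or 50 μM test compound. Enhancement is the EC50 ratio without/with compound, binned A >20, B 10-20, C >1 to <10.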

Assay [2] in a line: Sensory experiments: paired comparison of sweetener alone vs sweetener plus test compound. Format: in vivo, human. Particulars: panelists. The method, then: (§1) Test samples containing either a sweetener (sucrose or high-fructose corn syrup) alone or in combination with a test compound were presented in pairs to a group of panelists who were asked to determine which of the samples was sweeter. Subjects refrained from eating or drinking (except water) for at least 1 hour prior to the test. Subjects rinsed with water several times to clean the mouth. The samples within a paired comparison test were presented in a randomized, counterbalanced order. Panelists had up to a 1 minute delay between taste tests to clear the mouth of any tastes. Binomial probability tables were used to determine the probability of the correct number of responses occurring for each test at alpha-0.05.
Stock solutions of test compounds were prepared at 1000× final concentration with ethanol to ensure dispersion in solution. Test compound samples including sucrose were prepared by diluting the stock solutions in a low sodium buffer (0.952 g of KCl, 5.444 g of Na2HPO4, and 0.952 g of KH2PO4 in deionized ultrafiltered water) at pH 7.1 and containing sucrose. Test compound samples including high fructose corn syrup were prepared by diluting the stock solutions in the low sodium buffer at pH 2.8 (using citric acid to adjust the pH) and containing high fructose corn syrup. Control samples were balanced to 0.1% ethanol final. […]

Assay [3] in a line: Sensory evaluation of inherent sweetness of test compound. Format: in vivo, human. Particulars: test compound alone at 10 ppm. As for the experimental part: as §1
Stock solutions of test compounds were prepared at 1000× final concentration with ethanol to ensure dispersion in solution. Test compound samples including sucrose were prepared by diluting the stock solutions in a low sodium buffer (0.952 g of KCl, 5.444 g of Na2HPO4, and 0.952 g of KH2PO4 in deionized ultrafiltered water) at pH 7.1 and containing sucrose. Test compound samples including high fructose corn syrup were prepared by diluting the stock solutions in the low sodium buffer at pH 2.8 (using citric acid to adjust the pH) and containing high fructose corn syrup. Control samples were balanced to 0.1% ethanol final.
Compound 200 was also tested for inherent sweetness. […]

Molecules are shown by their SMILES.

`CC(C)(COc1cccc2c1C(N)=NS(=O)(=O)N2)Nc1ccnc(-n2ccnc2)n1` [Compound 200, 4-amino-5-(2-((2-(1H-imidazol-1-yl)pyrimidin-4-yl)amino)-2-methylpropoxy)1H-benzo[c][1,2,6]thiadiazine 2,2-dioxide]: the “Sucralose Enhancement EC50 Ratio” value in assay [1] (10 μM test compound) is recorded as “A (An “A” value indicates an enhancement ratio of greater than 20)”. The “Sucrose Enhancement EC50 Ratio” value in assay [1] (3 μM test compound) is “C (A “C” value indicates an enhancement ratio greater than 1 and less than 10)”; in assay [1] (10 μM test compound) it was “C (A “C” value indicates an enhancement ratio greater than 1 and less than 10)”; in assay [1] (50 μM test compound), “C (A “C” value indicates an enhancement ratio greater than 1 and less than 10)”. Moreover, the “sweetness intensity of the combination of test compound and 6% HFCS, compared with HFCS-alone” value in assay [2] (test compound at 10 ppm or less with 6% HFCS, low sodium buffer pH 2.8) was “greater than 6 % HFCS”. Also, the “Equivalent Sucrose Conc.” value in assay [2] (test compound at 10 ppm or less with 6% sucrose, low sodium buffer pH 7.1) is listed as “A (An “A” value indicates an equivalent sucrose concentration of 10% or greater)”. Moreover, the “inherent sweetness intensity, compared with sucrose solution” value in assay [3] is recorded as < 1.5 % sucrose.

Consider `NC1=NS(=O)(=O)Nc2cccc(OC[C@H]3CCCN(c4cc(C(=O)N5CCOCC5)ccn4)C3)c21` [Compound 614], for which, in assay [1] (50 μM test compound), the “Fructose Enhancement EC50 Ratio” value is “C (A “C” value indicates an enhancement ratio greater than 1 and less than 10)”; the “Sucralose Enhancement EC50 Ratio” value is “A (An “A” value indicates an enhancement ratio of greater than 20)”; the “Sucrose Enhancement EC50 Ratio” value was “A (An “A” value indicates an enhancement ratio of greater than 20)”. Besides, in assay [1] (10 μM test compound), the “Sucralose Enhancement EC50 Ratio” value is listed as “A (An “A” value indicates an enhancement ratio of greater than 20)”. Besides, in assay [1] (3 μM test compound), the “Sucrose Enhancement EC50 Ratio” value is “C (A “C” value indicates an enhancement ratio greater than 1 and less than 10)”.

As to `CN1CCN(C(=O)c2ccnc(N3CCC[C@H](COc4cccc5c4C(N)=NS(=O)(=O)N5)C3)c2)CC1` [Compound 615], the “Sucralose Enhancement EC50 Ratio” value in assay [1] (10 μM test compound) and in assay [1] (50 μM test compound) was “A (An “A” value indicates an enhancement ratio of greater than 20)” each time. In addition, the “Sucrose Enhancement EC50 Ratio” value in assay [1] (3 μM test compound) is “C (A “C” value indicates an enhancement ratio greater than 1 and less than 10)”; in assay [1] (10 μM test compound) it was “C (A “C” value indicates an enhancement ratio greater than 1 and less than 10)”; in assay [1] (50 μM test compound), “B (A “B” value indicates an enhancement ratio from 10 to 20)”.

As for `CC(C)CNC(=O)c1ccnc(N2CCC[C@H](COc3cccc4c3C(N)=NS(=O)(=O)N4)C2)c1` [Compound 616], in assay [1] (50 μM test compound), the “Fructose Enhancement EC50 Ratio” value is “C (A “C” value indicates an enhancement ratio greater than 1 and less than 10)”; the “Sucralose Enhancement EC50 Ratio” value is “A (An “A” value indicates an enhancement ratio of greater than 20)”; the “Sucrose Enhancement EC50 Ratio” value was “C (A “C” value indicates an enhancement ratio greater than 1 and less than 10)”. Further, in assay [1] (10 μM test compound), the “Sucralose Enhancement EC50 Ratio” value is “A (An “A” value indicates an enhancement ratio of greater than 20)”; the “Sucrose Enhancement EC50 Ratio” value is “C (A “C” value indicates an enhancement ratio greater than 1 and less than 10)”. Further, the “Sucrose Enhancement EC50 Ratio” value in assay [1] (3 μM test compound) is “C (A “C” value indicates an enhancement ratio greater than 1 and less than 10)”.

Turning to `NC1=NS(=O)(=O)Nc2cccc(OC[C@H]3CCCN(c4cc(C(=O)NCC5CC5)ccn4)C3)c21` [Compound 617], the “Fructose Enhancement EC50 Ratio” value in assay [1] (10 μM test compound) is “C (A “C” value indicates an enhancement ratio greater than 1 and less than 10)”; in assay [1] (50 μM test compound), “C (A “C” value indicates an enhancement ratio greater than 1 and less than 10)”. Further, the “Sucralose Enhancement EC50 Ratio” value in assay [1] (10 μM test compound) and in assay [1] (50 μM test compound) was “A (An “A” value indicates an enhancement ratio of greater than 20)” each time. For the same compound, the “Sucrose Enhancement EC50 Ratio” value in assay [1] (3 μM test compound) is “C (A “C” value indicates an enhancement ratio greater than 1 and less than 10)”; in assay [1] (10 μM test compound), “C (A “C” value indicates an enhancement ratio greater than 1 and less than 10)”; in assay [1] (50 μM test compound) it was “C (A “C” value indicates an enhancement ratio greater than 1 and less than 10)”.

Consider `NC1=NS(=O)(=O)Nc2cccc(OC[C@H]3CCCN(c4cc(C(=O)NCC5CCCCC5)ccn4)C3)c21` [Compound 618], for which, in assay [1] (50 μM test compound), the “Fructose Enhancement EC50 Ratio” value was “C (A “C” value indicates an enhancement ratio greater than 1 and less than 10)”; the “Sucralose Enhancement EC50 Ratio” value is reported as “B (A “B” value indicates an enhancement ratio from 10 to 20)”; the “Sucrose Enhancement EC50 Ratio” value is “C (A “C” value indicates an enhancement ratio greater than 1 and less than 10)”. Also, in assay [1] (10 μM test compound), the “Sucralose Enhancement EC50 Ratio” value is listed as “B (A “B” value indicates an enhancement ratio from 10 to 20)”; the “Sucrose Enhancement EC50 Ratio” value was “C (A “C” value indicates an enhancement ratio greater than 1 and less than 10)”. Moreover, in assay [1] (3 μM test compound), the “Sucrose Enhancement EC50 Ratio” value is “C (A “C” value indicates an enhancement ratio greater than 1 and less than 10)”.
